Strand notation (5' to 3'): a small letter for the sugar, then the base; units joined by * are phosphorothioate-linked, units joined directly phosphodiester-linked; [ ] holds rarer units or linkages, { } end groups; capitals alone tell only the bases. [PAM-N] = nucleoside carrying a 2'-(butylacetamido)-palmitamide group (palmitic acid C16 conjugate) (N: the base); e = 2'-O-(2-methoxyethyl) (MOE); l = locked nucleic acid (LNA); [5mC] = 5-methylcytosine; d = 2'-deoxy (DNA)
What was measured:
GCGR mRNA = experiment: Antisense inhibition of GCGR in HepG2 cells (Table 79); type: cell-based, human; conditions: for percent reduction in GCGR mRNA: HepG2 cells, relative to untreated control cells
Description: Short antisense compounds targeted to a GCGR nucleic acid were tested for their effects on GCGR mRNA in vitro.
Cultured HepG2 cells at a density of 10000 cells per well in a 96-well plate were treated as described herein with 25, 50, 100 or 200 nM of antisense oligonucleotide. After the treatment period, RNA was isolated from the cells and GCGR mRNA levels were measured by quantitative real-time PCR, as described herein. GCGR mRNA levels were adjusted according to total RNA content as measured by RIBOGREEN®. Results are presented as percent reduction in GCGR mRNA, relative to untreated control cells.

ApoB mRNA = ApoB mRNA in liver and estimated ED50, compounds comprising palmitic acid conjugates (Table 95); type: in vivo, mouse; conditions: ApoB mRNA in liver, Balb/c mice, relative to saline
Description: 0.4, and 0.16 umol/kg. Each dose group consisted of four animals. A 5-10-5 MOE gapmer was used for a control treatment. Mice were sacrificed approximately 48 hours following the final dose. Liver tissue was collected for RNA isolation, and blood was collected for serum chemistry analyses. ApoB mRNA levels were measured by real-time PCR as described herein. ApoB mRNA levels were normalized to RNA levels as determined by RIBOGREEN, and are presented in Table 95 as percent inhibition relative to ApoB mRNA levels in saline-treated control animals.
At the 2.5 umol/kg dose, ApoB inhibition by the short antisense compounds was greater than observed with a 5-10-5 MOE gapmer at an equivalent dose. […] Triglycerides were reduced at the 2.5 and […] doses of ISIS 387462 and ISIS 391872.

monkey GCGR mRNA = experiment: Antisense inhibition of GCGR in primary monkey hepatocytes (Table 80); type: cell-based; conditions: relative to untreated control cells
Description: Additional short antisense compounds targeted to a GCGR nucleic acid were tested for their effects on monkey GCGR mRNA in vitro. Cultured primary monkey hepatocytes were treated as described herein with 25, 50, 100 or 200 nM of short antisense compound. After the treatment period, RNA was isolated from the cells and GCGR mRNA levels were measured by quantitative real-time PCR, as described herein. GCGR mRNA levels were adjusted according to total RNA content as measured by RIBOGREEN®. Results are presented in Table 80 as percent reduction in GCGR mRNA, relative to untreated control cells.

## ISIS 327161: 3-10-3 MOE gapmer targeted to GCGR (eA*eG*e[5mC]*dT*dG*d[5mC]*dT*dG*dT*dA*d[5mC]*eA*eT*e[5mC])
GCGR mRNA; HepG2, 25, 50, 100 or 200 nM
  GCGR mRNA: reduced GCGR mRNA in a dose-dependent manner

## 391872 ([PAM-G]*lG*dT*dA*dC*dA*dT*dG*dG*dA*dA*dG*lT*l[5mC]) [compound 391872]
ApoB mRNA; single i.p. injection 0.16 umol/kg
  % Inhib: 18%
ApoB mRNA; single i.p. injection 0.4 umol/kg
  % Inhib: 50%
ApoB mRNA; single i.p. injection 1.0 umol/kg
  % Inhib: 92%

## 327161 (antisense eA*eG*e[5mC]*dT*dG*d[5mC]*dT*dG*dT*dA*d[5mC]*eA*eT*e[5mC]) [compound 327161]
GCGR mRNA; 25 nM
  percent reduction in GCGR mRNA: −36%
GCGR mRNA; 50 nM
  percent reduction in GCGR mRNA: −30%
GCGR mRNA; 100 nM
  percent reduction in GCGR mRNA: −33%
GCGR mRNA; 200 nM
  percent reduction in GCGR mRNA: −64%
Monkey GCGR mRNA; 25 nM
  percent reduction in GCGR mRNA: −19%
Monkey GCGR mRNA; 50 nM
  percent reduction in GCGR mRNA: −33%
Monkey GCGR mRNA; 100 nM
  percent reduction in GCGR mRNA: −55%
Monkey GCGR mRNA; 200 nM
  percent reduction in GCGR mRNA: −54%

Reference: patent publication US8372967B2, “Compounds and methods for modulating expression of GCCR” (Isis Pharmaceuticals, Inc., priority 2006, dated 2013)
